Experimental data taken from US7439359B2, “Small molecule compositions for binding to hsp90” (Sloan-Kettering Institute for Cancer Research, priority 2000, dated 2008).
“Also recorded” adds a separate entry of the source.

Columns and labels:
MCF-7 [1] = assay: Growth inhibition, sulforhodamine B assay; type: cell-based, human; settings: Homo sapiens, MCF7, 72 hours, unit inferred
Source text: (§1) Protein Assays. […] Antiproliferative index. […] Tissue Culture IC50 Studies. […] Her2 degradation. Total Protein Assays. […] Binding studies. Solid phase competition assays.

MDA-MB-468 [2] = assay: Growth inhibition, sulforhodamine B assay; type: cell-based, human; settings: Homo sapiens, MDA-MB-468, 72 hours, unit inferred
Source text: as §1

Raf-1 [3] = assay: Raf-1 degradation in SKBr3 cells (immunoblot); type: cell-based, human; settings: SKBr3, 24 hours, 10-250 μM
Protocol: PU4 degraded Her2 at concentrations greater than 50 μM and Raf-1 at a concentration of 250 μM.

Raf-1 [4] = assay: Raf-1 amount in MCF-7 cells, time course; type: cell-based, human; settings: MCF-7, 100 μM, 1.5-24 hours
Protocol: (§2) To test the time course of degradation, MCF-7 cells were treated with 100 μM PU3. Aliquots of cells were recovered at 1.5, 3, 6, 12 and 24 hours, and the amount of Her2, Raf-1, Hsp90 and Trap-1 was evaluated.

estrogen receptor = assay: Estrogen receptor degradation in MCF-7 cells (immunoblot); type: cell-based, human; settings: MCF-7, 24 hours, 10-250 μM
Hsp90 = Hsp90 levels in MCF-7 cells (Western blotting); type: cell-based, human
Protocol: as §2

Hsp70 = Hsp70 levels in MCF-7 cells (Western blotting); type: cell-based, human
Trap1 = Trap1 levels in MCF-7 cells (Western blotting); type: cell-based, human; settings: MCF-7, 10-250 μM, 24 hours
MCF-7 [5] = assay: Growth assay, cell number by coulter counter; type: cell-based, human; settings: MCF-7, FIG. 14
Protocol: (§3) Cell cultures of MCF-7, SKBr3 and MDA-MB-468 cells were treated with PU3 at one of several concentrations or a DMSO control to test for the occurrence of antiproliferative effects. FIGS. 14A-C show the results of cell number as a function of time.

MDA-MB-468 [6] = assay: Growth assay, cell number by coulter counter; type: cell-based, human; settings: MDA-MB-468, FIG. 14
Protocol: as §3

SKBr3 = assay: Growth assay, cell number by coulter counter; type: cell-based, human; settings: SKBr3, FIG. 14
Protocol: as §3

MCF-7 cells = assay: Changes in cell morphology; type: cell-based, human; settings: MCF-7 cells exposed to drug
Source text: Drugs may also be assayed based upon observed very characteristic changes in cell morphology. […] The increase in size is mostly due to an abundance in cytoplasm. These morphological changes are characteristic of mature epithelial differentiation and reversal of transformation.

[7] = test system: Her2, Raf1, Her3, estrogen receptor (ER), Rb, p85 (PI3K), tubulin and actin; assay: Western blot of signaling proteins in SKBr3 and MCF-7 cells (differential degradation); type: cell-based, human
Protocol: Cultures of SKBr3 and MCF-7 cells were treated with varying concentrations (0, 10, 50 100, or 250 μM) of PU3 for 24 hours. The cells were lysed and levels of Her2, Raf1, Her3, estrogen receptor (ER), p85 (PI3K), tubulin and actin were analyzed by western blotting. Reduction in the amount of those signaling proteins which depend on hsp90 for their function (Her2, Raf1, Her3 and ER) was observed. No effect was observed on PI3K, tubulin or actin, proteins which are involved in other signaling pathways.

[8] = Safety in mice with MCF-7 xenografts; type: in vivo; settings: IP
Protocol: (§4) PU3 was tested for its safety and potency in MCF-7 xenografts. […] Mice with established tumors were treated with a single dose of PU3 at doses of 50, 100 and 500 mg/kg i.p. Control mice were treated with DMSO alone. Mice were sacrificed 12 hours post-treatment. For immunoblotting, tumor tissue was homogenized in 2% SDS lysis buffer (pH 7.4).

Her2 [9] = assay: Her2 levels in MCF-7 xenograft tumor tissue (immunoblotting); type: in vivo, Mice; settings: single dose 50, 100 and 500 mg/kg i.p., 12 hours post-treatment
Protocol: as §4

PI3 kinase (p85) = PI3 kinase (p85) levels in MCF-7 xenograft tumor tissue (immunoblotting); type: in vivo, Mice; settings: single dose 50, 100 and 500 mg/kg i.p., 12 hours post-treatment
Protocol: as §4

Hsp90alpha [10] = target: T1, Hsp90alpha (Homo sapiens, UniProt P07900); assay: PU3-biotin on Sepharose-Streptavidin beads; type: binding; settings: immobilized PU3-biotin
Source text: (§5) PU3 was linked to Biotin through the middle OH in accordance with the synthetic scheme shown in FIGS. 16A and B. PU3-biotin was immobilized on Sepharose-Streptavidin beads.

Trap-1 = target: T2, Trap-1 (Homo sapiens, UniProt Q12931); assay: PU3-biotin on Sepharose-Streptavidin beads; type: binding; settings: immobilized PU3-biotin
T2 sequence (Q12931 60-704): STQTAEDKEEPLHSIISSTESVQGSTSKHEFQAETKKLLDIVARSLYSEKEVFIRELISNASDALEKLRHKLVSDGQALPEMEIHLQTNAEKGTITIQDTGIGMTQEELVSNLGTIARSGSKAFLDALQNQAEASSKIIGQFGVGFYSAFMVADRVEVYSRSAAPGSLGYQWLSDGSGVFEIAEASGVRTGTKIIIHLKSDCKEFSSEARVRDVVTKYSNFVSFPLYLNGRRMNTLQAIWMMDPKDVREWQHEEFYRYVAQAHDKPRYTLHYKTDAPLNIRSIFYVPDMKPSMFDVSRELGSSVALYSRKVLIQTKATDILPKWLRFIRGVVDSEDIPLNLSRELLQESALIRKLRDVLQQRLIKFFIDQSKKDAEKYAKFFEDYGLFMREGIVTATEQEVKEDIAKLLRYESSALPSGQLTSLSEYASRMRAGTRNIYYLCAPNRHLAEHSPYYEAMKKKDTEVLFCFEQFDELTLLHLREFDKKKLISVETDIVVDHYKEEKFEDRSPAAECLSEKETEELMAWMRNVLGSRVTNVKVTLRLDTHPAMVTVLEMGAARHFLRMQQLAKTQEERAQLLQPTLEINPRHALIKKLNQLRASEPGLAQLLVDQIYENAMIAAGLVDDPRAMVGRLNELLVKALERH
Source text: as §5

Hsp90alpha [11] = target: T1, Hsp90alpha; assay: Solid phase competition assay with GM-beads, Hsp90 alpha immunoblot; type: binding; set-up: purchased Stressgen SPP-770; settings: competition with immobilized GM; unit inferred; read-out: EC50 Hsp90 α
Protocol: A test was also designed which allows identification of compounds which interact differentially with Hsp90-alpha and Hsp90-beta. […] An Hsp90 protein preparation containing both the alpha and the beta form is incubated with the support in the presence or absence of a compound to be evaluated. […] After washing, the material bound to the support is eluted and the eluate is separated on an SDS/PAGE gel and visualized by immunoblotting with anti-Hsp90-alpha and anti-Hsp90-beta to determine the amount of material bound. Alternatively, if quantitative amounts of the Hsp90 protein preparation or known ratios of alpha to beta forms of Hsp90 are used in the first instance, the unbound material can be analyzed by a similar technique.
as §1

Her2 [12] = assay: Her2 total protein degradation in MCF-7 cells (immunoblot);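 further: Her2 levels judged by SDS-PAGE western blot of whole-cell lysates probed with anti-Her2 antibody, compared with DMSO vehicle-treated cells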
[13] = MCF-7, 100 μM, within the 24 hour period
[14] = SKBr3 and MCF-7, 10-250 μM, 24 hours

CCCCn1c(Cc2cc(OC)c(OC)c(OC)c2)nc2c(N)ncnc21 [PU3]
IC50 (MCF-7 [1]): 50 µM | IC50 (MDA-MB-468 [2]): 61 µM | Raf-1 degradation (Raf-1 [3]): only partial loss of Raf-1 at 250 μM | amount of Raf-1 (Raf-1 [4]): did not change significantly | estrogen receptor degradation (estrogen receptor): partially degraded estrogen receptor at concentrations over 50 μM; also recorded: dose-dependent degradation | synthesis of Hsp90 (Hsp90; [13]): significant synthesis | cellular levels of Hsp90 (Hsp90; MCF-7, 10-250 μM, 24 hours): increases the cellular levels of Hsp90 and Hsp70 | synthesis of Hsp70 (Hsp70; [13]): significant synthesis | cellular levels of Hsp70 (Hsp70; MCF-7, 10-250 μM, 24 hours): increases the cellular levels of Hsp90 and Hsp70 | Trap1 level / band recognized by anti-Trap-1 antibody (Trap1): induces a protein band that migrates more rapidly than Trap-1 | cell number as a function of time (MCF-7 [5]): clearly inhibits growth | cell number as a function of time (MDA-MB-468 [6]): clearly inhibits growth | cell number as a function of time (SKBr3): clearly inhibits growth | cell morphology (MCF-7 cells): flatten, increase in size and have distinct cellular boundaries | amount of Her2, Raf1, Her3 and ER [7, 14]: Reduction | amount of PI3K, tubulin or actin [7, 14]: No effect | Her2 degradation and lower-molecular weight HER-2 band (Example 3 summary) ([7]; cell line not stated): rapid decrease in Her2 levels | Raf / Her3 degradation (Example 3 summary) ([7]; cell line not stated): less sensitive to PU3, but are degraded at higher concentrations | dose administered without significant signs of toxicity [8]: up to 500 mg/kg | Her2 levels in tumor (Her2 [9]): reduction in Her2 levels | PI3 kinase (p85) levels in tumor (PI3 kinase (p85)): No change | interaction with Hsp90alpha (Hsp90alpha [10]): interaction of PU3 with the Trap-1 and Hsp90alpha | interaction with Trap-1 (Trap-1): interaction of PU3 with the Trap-1 and Hsp90alpha | EC50 (Hsp90alpha [11]): […] | IC50 (Her2 [12]; Homo sapiens, MCF7, read-out: IC50 Her2/MCF-7): 55 µM | Her2 lost (Her2 [12]; MCF-7, 100 μM, within 3 hours of administration): more than 50%
